Activity calls are given as the source filed them.
How the values were obtained:
cells [1] = format: functional, cell-based
cells [2] = format: functional, cell-based; remark: listed apart in the source
Protein Tat = Protein Tat (Human immunodeficiency virus type 1 group M subtype B (isolate HXB2)(HIV-1), UniProt P04608); format: functional;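 further: tat binding to TAR RNA read out by fluorescence polarization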
[3] = HIV-1 Vif–A3G interaction blockers – biochemical, TR-FRET, GST-Vif 1-94, biotin-A3G peptide, dose response retest, primary screen (AID 1117319); format: functional;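 further: TR-FRET signal of purified GST-Vif binding a biotinylated A3G peptide; inhibitors lower the FRET signal by blocking Vif and A3G binding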
[4] = viability loss in Vero cells – cytotoxicity control for Vif-APOBEC3G degradation inhibitor project, dose response (AID 1117358); format: functional; conditions: Vero
Aminopeptidase N = molecular target: T1, Aminopeptidase N (Plasmodium falciparum FcB1/Columbia, UniProt O96935); experiment: malaria alanyl aminopeptidase activity blockers – biochemical, fluorogenic H-Leu-NHMec substrate, 1536-well (AID 1445); design: species or system Plasmodium falciparum 3D7, 3D7
T1 sequence (O96935 whole entry): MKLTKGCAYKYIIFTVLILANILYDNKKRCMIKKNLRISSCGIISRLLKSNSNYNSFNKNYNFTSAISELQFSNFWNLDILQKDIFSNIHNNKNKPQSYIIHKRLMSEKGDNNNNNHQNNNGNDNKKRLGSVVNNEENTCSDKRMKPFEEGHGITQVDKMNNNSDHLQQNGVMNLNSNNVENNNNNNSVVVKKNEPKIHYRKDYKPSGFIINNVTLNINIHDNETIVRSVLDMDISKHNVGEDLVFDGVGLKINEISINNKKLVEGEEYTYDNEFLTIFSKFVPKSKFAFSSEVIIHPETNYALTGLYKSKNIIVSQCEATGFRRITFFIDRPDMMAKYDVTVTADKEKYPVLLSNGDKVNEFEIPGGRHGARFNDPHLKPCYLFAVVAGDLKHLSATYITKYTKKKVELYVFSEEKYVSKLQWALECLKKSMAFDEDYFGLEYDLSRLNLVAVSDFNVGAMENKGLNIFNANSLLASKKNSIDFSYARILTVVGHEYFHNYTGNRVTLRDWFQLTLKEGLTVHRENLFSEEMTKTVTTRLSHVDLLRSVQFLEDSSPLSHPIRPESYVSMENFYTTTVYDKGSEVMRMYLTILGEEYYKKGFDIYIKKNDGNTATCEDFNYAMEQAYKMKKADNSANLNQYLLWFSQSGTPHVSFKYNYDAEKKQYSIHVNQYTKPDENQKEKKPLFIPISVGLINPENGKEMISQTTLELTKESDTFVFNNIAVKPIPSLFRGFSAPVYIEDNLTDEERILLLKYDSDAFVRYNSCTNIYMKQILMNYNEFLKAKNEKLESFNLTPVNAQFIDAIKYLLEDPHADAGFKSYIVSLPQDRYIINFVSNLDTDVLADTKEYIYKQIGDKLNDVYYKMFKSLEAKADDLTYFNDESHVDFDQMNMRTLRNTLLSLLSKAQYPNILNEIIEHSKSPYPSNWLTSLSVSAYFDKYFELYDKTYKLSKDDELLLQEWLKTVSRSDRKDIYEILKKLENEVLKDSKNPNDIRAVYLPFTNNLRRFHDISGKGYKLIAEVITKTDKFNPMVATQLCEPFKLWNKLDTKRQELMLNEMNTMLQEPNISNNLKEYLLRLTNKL

Large T antigen = Large T antigen (Simian virus 40, UniProt P03070); format: functional, Betapolyomavirus macacae;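 further: Confirmatory-stage PubChem screen for compounds that inhibit SV40 T antigen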
Large T antigen, sequence (P03070 whole entry): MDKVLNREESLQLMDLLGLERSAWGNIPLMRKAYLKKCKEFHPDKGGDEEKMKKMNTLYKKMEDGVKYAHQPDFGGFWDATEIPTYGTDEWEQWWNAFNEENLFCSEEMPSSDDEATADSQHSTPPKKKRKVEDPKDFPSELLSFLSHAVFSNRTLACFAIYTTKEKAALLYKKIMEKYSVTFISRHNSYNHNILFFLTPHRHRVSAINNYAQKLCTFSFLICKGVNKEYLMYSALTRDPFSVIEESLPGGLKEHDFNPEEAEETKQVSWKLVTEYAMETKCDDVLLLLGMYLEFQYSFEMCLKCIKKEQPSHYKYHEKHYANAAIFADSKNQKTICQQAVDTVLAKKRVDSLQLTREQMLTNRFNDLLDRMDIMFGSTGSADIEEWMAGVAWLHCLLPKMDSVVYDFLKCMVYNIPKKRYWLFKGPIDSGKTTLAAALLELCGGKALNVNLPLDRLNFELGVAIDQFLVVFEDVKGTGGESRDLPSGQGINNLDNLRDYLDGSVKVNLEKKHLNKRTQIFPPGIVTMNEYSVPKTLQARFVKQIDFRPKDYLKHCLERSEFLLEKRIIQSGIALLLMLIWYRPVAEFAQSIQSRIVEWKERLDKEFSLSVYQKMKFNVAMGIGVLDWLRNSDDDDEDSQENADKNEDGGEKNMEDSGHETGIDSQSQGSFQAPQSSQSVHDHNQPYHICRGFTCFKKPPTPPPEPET

Nonstructural protein 1 = Nonstructural protein 1 (Influenza A virus, UniProt Q194T2); format: functional, Influenza A virus (A/California/07/2009(H1N1))
Nonstructural protein 1, sequence (Q194T2 whole entry): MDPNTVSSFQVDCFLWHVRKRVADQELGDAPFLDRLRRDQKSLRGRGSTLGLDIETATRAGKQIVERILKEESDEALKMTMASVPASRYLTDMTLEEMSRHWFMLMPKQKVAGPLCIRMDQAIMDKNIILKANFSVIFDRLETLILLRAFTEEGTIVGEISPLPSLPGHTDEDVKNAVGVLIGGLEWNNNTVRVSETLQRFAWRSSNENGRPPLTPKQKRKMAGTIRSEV

[5] = molecular target: T2, Replicative DNA helicase DnaB (Mycobacterium tuberculosis, UniProt P9WMR3); experiment: DnaB intein splicing inhibitors, dose response, biochemical, cell-free fluorescence (AID 449749); format: functional
T2 sequence (P9WMR3 whole entry): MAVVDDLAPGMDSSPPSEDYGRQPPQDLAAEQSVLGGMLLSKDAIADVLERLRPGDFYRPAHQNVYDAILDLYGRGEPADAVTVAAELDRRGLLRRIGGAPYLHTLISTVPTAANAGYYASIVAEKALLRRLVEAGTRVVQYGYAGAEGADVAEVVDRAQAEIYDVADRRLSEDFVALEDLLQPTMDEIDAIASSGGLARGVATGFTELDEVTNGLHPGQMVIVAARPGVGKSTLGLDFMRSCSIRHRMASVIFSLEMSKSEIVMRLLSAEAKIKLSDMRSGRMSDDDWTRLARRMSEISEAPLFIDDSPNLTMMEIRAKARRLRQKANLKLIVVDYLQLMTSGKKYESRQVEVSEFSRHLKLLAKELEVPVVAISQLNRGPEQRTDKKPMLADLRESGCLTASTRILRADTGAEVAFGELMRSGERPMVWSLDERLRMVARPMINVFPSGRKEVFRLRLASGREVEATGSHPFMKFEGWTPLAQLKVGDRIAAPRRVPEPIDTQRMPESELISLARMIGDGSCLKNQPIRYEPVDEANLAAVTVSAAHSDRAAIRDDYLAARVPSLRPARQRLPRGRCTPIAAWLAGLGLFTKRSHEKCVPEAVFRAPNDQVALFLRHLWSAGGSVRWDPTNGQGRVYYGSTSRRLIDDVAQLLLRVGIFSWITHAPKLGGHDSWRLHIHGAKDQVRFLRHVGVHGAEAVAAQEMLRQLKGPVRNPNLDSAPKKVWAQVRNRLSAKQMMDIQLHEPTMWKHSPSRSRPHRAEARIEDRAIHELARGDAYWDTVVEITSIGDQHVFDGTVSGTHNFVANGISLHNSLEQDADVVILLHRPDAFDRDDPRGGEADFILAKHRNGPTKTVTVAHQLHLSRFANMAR

Protein RecA = molecular target: T3, Protein RecA (Mycobacterium tuberculosis, UniProt P9WHJ3); experiment: Fluorescence Cell-Free Homogeneous Dose Retest to Identify Inhibitors of RecA-Intein Splicing Activity. [Related pubchem assays (depositor defined):AID2097, AID2223, AID489010, AID492950]; format: functional
T3 sequence (P9WHJ3 whole entry): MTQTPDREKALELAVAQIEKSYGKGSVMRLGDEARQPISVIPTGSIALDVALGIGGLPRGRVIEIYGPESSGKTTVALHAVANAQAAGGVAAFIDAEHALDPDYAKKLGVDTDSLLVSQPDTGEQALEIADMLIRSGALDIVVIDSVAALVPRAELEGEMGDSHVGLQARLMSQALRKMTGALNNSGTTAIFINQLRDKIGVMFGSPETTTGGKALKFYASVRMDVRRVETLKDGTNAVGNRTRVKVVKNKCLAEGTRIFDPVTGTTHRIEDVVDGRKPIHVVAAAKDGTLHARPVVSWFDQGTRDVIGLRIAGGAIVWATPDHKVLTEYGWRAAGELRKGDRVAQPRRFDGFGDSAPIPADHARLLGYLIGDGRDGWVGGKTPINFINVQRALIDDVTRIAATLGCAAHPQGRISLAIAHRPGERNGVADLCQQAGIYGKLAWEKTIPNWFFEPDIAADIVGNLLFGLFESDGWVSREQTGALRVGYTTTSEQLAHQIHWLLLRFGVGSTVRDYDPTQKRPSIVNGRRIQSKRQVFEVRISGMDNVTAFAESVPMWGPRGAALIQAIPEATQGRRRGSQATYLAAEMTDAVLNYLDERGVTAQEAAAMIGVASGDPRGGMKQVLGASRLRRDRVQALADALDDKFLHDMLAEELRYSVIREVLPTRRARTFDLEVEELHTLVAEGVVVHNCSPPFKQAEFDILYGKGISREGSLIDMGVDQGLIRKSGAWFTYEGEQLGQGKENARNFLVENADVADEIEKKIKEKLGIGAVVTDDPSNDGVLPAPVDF

[6] = molecular target: 26S proteasome non-ATPase regulatory subunit 14 (Homo sapiens, UniProt O00487); experiment: inhibition of proteasome subunit RPN11 – biochemical, fluorescence polarization, uHTS hits, confirmation (AID 602368); format: functional
26S proteasome non-ATPase regulatory subunit 14, sequence (O00487 whole entry): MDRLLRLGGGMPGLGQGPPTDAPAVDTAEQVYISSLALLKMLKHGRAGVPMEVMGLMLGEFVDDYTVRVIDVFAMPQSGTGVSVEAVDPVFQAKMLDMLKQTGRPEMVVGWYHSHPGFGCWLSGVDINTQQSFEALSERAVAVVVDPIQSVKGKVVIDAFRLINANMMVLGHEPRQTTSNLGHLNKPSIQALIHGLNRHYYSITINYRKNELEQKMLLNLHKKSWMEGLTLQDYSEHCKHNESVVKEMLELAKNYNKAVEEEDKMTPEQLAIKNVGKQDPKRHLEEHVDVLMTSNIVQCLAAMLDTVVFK

[7] = molecular target: 72 kDa type IV collagenase (Homo sapiens, UniProt P08253); experiment: Dose Response validation of uHTS RPN11 inhibitor hits using a MMP-2 Fluorescence assay.; format: functional
72 kDa type IV collagenase, sequence (P08253 whole entry): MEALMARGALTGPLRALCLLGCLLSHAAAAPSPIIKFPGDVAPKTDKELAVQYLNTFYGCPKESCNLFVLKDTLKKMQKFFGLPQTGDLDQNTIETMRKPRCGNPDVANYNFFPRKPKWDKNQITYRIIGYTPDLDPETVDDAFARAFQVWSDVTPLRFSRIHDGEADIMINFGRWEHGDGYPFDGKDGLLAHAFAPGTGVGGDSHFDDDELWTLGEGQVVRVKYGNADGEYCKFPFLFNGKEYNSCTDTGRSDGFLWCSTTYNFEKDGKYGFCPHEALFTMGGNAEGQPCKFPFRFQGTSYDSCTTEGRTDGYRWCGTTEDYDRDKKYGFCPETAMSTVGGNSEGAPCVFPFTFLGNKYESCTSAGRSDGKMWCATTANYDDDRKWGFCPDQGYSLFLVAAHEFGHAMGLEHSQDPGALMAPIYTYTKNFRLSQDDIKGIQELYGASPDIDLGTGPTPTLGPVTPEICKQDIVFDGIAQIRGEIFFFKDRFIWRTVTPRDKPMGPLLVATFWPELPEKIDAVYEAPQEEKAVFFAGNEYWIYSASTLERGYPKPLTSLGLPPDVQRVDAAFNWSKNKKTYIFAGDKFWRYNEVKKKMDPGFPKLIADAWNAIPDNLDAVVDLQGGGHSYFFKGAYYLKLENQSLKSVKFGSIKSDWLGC

Prothrombin = Prothrombin (Bos taurus, UniProt P00735); experiment: thrombin protease inhibitors – biochemical, fluorescence polarization, uHTS hits, dose response (AID 602369); format: functional
[8] = molecular target: Matrix metalloproteinase-14 (Homo sapiens, UniProt P50281); experiment: Dose Response confirmation of uHTS hits for a small molecule inhibitors of MT1-MMP activation in a fluorescence assay set 1.; format: functional
[9] = viability loss in THP-1 monocytes – THP-1 cells, cytotoxicity control for Vif-APOBEC3G degradation inhibitor project, dose response (AID 1117359); format: functional; conditions: THP-1

Protein Tat, sequence (P04608 whole entry): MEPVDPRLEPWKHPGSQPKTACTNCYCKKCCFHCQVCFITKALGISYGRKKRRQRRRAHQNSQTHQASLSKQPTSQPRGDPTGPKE

COC(=O)/C(=C(/F)SCC(C)=O)C(F)(F)F
EC50 (cells [1]): > 350 µM (not active) | EC50 (cells [2]): > 350 µM (not active) | IC50 (Protein Tat): > 100 µM (active)

CCCNC(=O)c1ccc2c(c1)C1C3CCC(C3)C1C(c1ccccc1)N2 (stereo not given)
IC50 [3]: > 100 µM (active) | CC50 [4]: > 40 µM (active)

CCN(CC)c1ccc(/C=C2\C(=O)N(c3nnc(C)c(O)n3)N=C2C)cc1
IC50 (Aminopeptidase N): 42.6 µM (active) | IC50 (Large T antigen): 54.1 µM (active) | IC50 (Nonstructural protein 1): 12.6 µM (active) | AC50 [5]: 6.6 µM (active) | EC50 (Protein RecA): 2.08 µM (active) | IC50 [6]: 49.4 µM (active) | IC50 [7]: 96 µM (active) | IC50 (Prothrombin): 49.9 µM (active) | IC50 [8]: 32.8 µM (inactive) | CC50 [9]: 25.6 µM (active)
